Test results reported in patent US10251835B2, “Cranial delivery of pharmaceuticals” (GLIA, LLC, priority 2013, dated 2019).
Entries after “also recorded” stand apart in the source; their conditions may differ.

Legend:
Assay type in all cases: in vivo, human
[1] = tested on: patients with ocular discomfort resulting from dry eye; assay: Treatment of dry eye with topical progesterone applied cranially
[2] = tested on: person with blepharospasm; assay: Treatment of blepharospasm; details: fourteen days of 1% progesterone gel to forehead; before treatment 73
Source text: Upon ophthalmic re-examination following fourteen days of 1% progesterone gel applied topically to the forehead, the blink rate had decreased to 18 times per minute.

[3] = tested on: patient with corneal Herpes zoster; assay: Treatment of herpetic keratitis; details: for intraocular pressure: ganciclovir gel plus progesterone to forehead
Source text: A person suffered a first onset of active corneal Herpes zoster. They presented with classic Herpes Zoster symptoms including, left hemisphere unilateral skin lesions on forehead, bridge of nose area and down the nose not including the tip; left cornea dendrites, keratitis and edema; loss of functional vision, elevated intraocular pressure as high as 42 mm Hg, conjunctival irritation and redness and anesthetic cornea. There were also general body flu symptoms.
The patient was initially treated with ophthalmic prednisolone acetate 1% up to 5 times daily, ophthalmic antibiotics, non-prescription ophthalmic wetting agents, and lubrication with gels administered to the eye. Additional drug therapies included systemic oral valcyclovir as high as 2 g per day and medications to reduce intraocular pressure.
Despite the therapy, symptom flare-up was as frequent as 2 weeks to 1 month over the past 10 years. Although intraocular pressure returned to within the normal range, cataracts formed as a result of long term use of corticosteroids.
The cornea surface contour became increasingly distorted with prominent ridges. There was incursion of capillaries across the conjunctiva into the cornea, both superficially and deep. Deposition of phospholipids through a leaching process occluded the cornea with grey color deposits on about 50% of its surface.
Corneal thinning had progressed to near perforation levels which required preparation for corneal patch surgery.
At this point, 1% topical progesterone (approximately 1 mg of progesterone) was first administered as a method to keep the cornea from perforating and the tear film intact. The drug was applied to the forehead 4 times daily together with topical antibiotics and corticosteroids.
After stabilizing the cornea, antiviral treatment was begun with ganciclovir gel (0.15%; 0.15 mg of drug) applied five times daily to the forehead together with once daily progesterone (1%; 1 mg of drug) and a nightly drop of ophthalmic antibiotic. Intraocular pressure measured at the onset of ganciclovir treatment was 18 mm Hg.
The patient reported a decrease in eye strain as a result of an improvement in tear film. […] Over the next two weeks, inflammation was further reduced and visual acuity increased somewhat when the head was tilted back. During the first full month of treatment, the affected eye generally felt comfortable. There was a lack of inflammation, and some vision returned to the threshold of functionality. Intraocular pressure remained normal in the range of 16 mm Hg.
There was modest improvement in reading the eye chart, and corneal staining due to defects was minimized. Intraocular pressure remained normal in both eyes at about 16 mm Hg during this period. The phospholipid deposits further reduced in density and began to give the appearance of lesser areas of concentrations. Nearly functional vision could be achieved by positioning the head back and viewing through the central cornea. The residual clear area of the cornea became more so and less inflamed. Through the end of the second month, improvement to the cornea accelerated. The pupil was now clearly visible and more light was entering the eye.
The patient was examined regularly by an ophthalmologist, and after three and one half months of treatment. The intraocular pressure was normal at 12 mm Hg. […] Intraocular pressure has remained in the same range for more than one year.

CC(=O)[C@H]1CC[C@H]2[C@@H]3CCC4=CC(=O)CC[C@]4(C)[C@H]3CC[C@]12C [progesterone] was tested, and the Results ([1]; 1% progesterone TID) was “Stopped using lubricating drops. Redness,; also recorded: itching and scaly eyelids disappeared”, the TBUT ([1]; subject 18, 1% progesterone 2-3 times/day, increased from 2) was “TBUT increased from 2 to 8. Long term” and the blink rate [2] was 18 times per minute. The corneal deterioration ([3]; 1% progesterone (about 1 mg) to forehead 4 times daily together with topical antibiotics and corticosteroids) was “Further corneal deterioration was halted”, the “inflammation, visual acuity and state of affected eye” value ([3]; ganciclovir gel 0.15% (0.15 mg) five times daily plus progesterone 1% (1 mg) once daily to forehead, nightly ophthalmic antibiotic, 1 week to 3.5 months) was “less inflammation and a slight improvement in visual acuity; also recorded: some functional vision was attained; also recorded: stable and normalizing” and the intraocular pressure ([3]; after three and one half months) was 12 mm Hg. The intraocular pressure ([3]; both eyes, examination period up to third month) was “about 16 mm Hg” and the intraocular pressure ([3]; first full month of treatment) was ~16 mm Hg.
